From article PMC3438169 (PLoS ONE, 2012)
Where a SMILES comes first, the peptide text is derived from it. The star is where a group is joined. Cbz = O=C(OCc1ccccc1)*

Experiments:
[1] = test system: Cox4-GFP labeled mitochondria; assay: Microscopy of mitochondrial morphology (Cox4-GFP); format: cell-based, S. cerevisiae; settings: Benomyl 3× IC30 (90 µM), 30 minutes
Description: BY4741 cells containing a genomic COX4-GFP fusion where grown to mid-log phase in glucose and ethanol/glycerol media and incubated with the corresponding concentrations of compound for 30 minutes. Aliquots where spotted on microscopy slides and directly imaged on a Zeiss Axiovert 200Mot microscope equipped with a AxioCam MRm digital camera using the Plan-Neofluar 100×, 1.3 oil PH3 objective (Carl Zeiss, Feldbach, Switzerland). A z-stack consisting of 3 images spaced by […] in the filterset 38 (eGFP) channel and a phase-contrast image where acquired. False colors where applied to the GFP images (green) and phase contrast (blue) and the images merged into one plane and scaled to 8-bit. Representative, individual cells where selected and assembled into a panel using Adobe Photoshop (Adobe Systems Inc.).

[2] = test system: EF-G in complex with the ribosome; settings: ref [22], [23], [24]; cited from earlier work
Description: This may stand in contrast to the characterized inhibitor of EF-G, fusidic acid, which binds at the GDP/GTP binding pocket and interferes with the post translocation release of EF-G bound on the riboso ...

HCT116 = assay: Cell viability (CellTiter-Glo), HCT116 with siRNA or mEF-G1 variants; format: cell-based, human; settings: 7 days
Description: (§1) HCT116 (ATCC, CCL-247) and RKO (ATCC, CRL-2577) cell lines were maintained in a humidified incubator at 37°C and 5% CO2 in RPMI1640 supplemented with 10% FBS. Cell viability was determined using the CellTiter-Glo luminescent cell viability assay (Promega). […] Subsequently, 40 µl of CellTiter-Glo reagent was added to each well and luminescence recorded on an Envision plate reader (Perkin Elmer). Each treatment condition was tested in triplicate and compared to an equivalent volume of DMSO as control.
(§2) Non-targeting (NT) or GFM1 siRNA pools were obtained from Dharmacon (ON-TARGETplus SMART pool D-001810 and L-013685). HCT116 and RKO cells were reverse transfected in 6-well plates using RNAiMax (Invitrogen) and 25 nM siRNA. After 2 days, cells were harvested by trypsinization and re-plated into 6-well plates for western blot analysis or into 384-well plates for compound treatments and cell viability determination using CellTiter-Glo as described above.
(§3) The human GFM1 cDNA (encoding mEF-G1, Table 2) was mutagenized in pENTR221 (Invitrogen) using QuikChangeII XL site-directed mutagenesis (Stratagene). The following point mutations were introduced: C1355T (encoding S452L), C1481T (encoding S494F) and T2078A (encoding L693Q). The GFM1 cDNAs were then subcloned into the mammalian expression vector pLenti4/TO/V5 using LR clonase II (Invitrogen) and sequence-verified. The pLenti4 constructs were then co-transfected with a lentiviral plasmid mix (encoding LP1, LP2 and VSV-G) into 293T cells, and viral particles were harvested after 72 h and used to infect HCT116 and RKO cells. Stable cell lines were generated by selection with 400 µg/ml Zeocin and plated into 6-well plates for western blot analysis or into 384-well plates for compound treatments and cell viability determination using CellTiter-Glo as described above.

RKO = assay: Cell viability (CellTiter-Glo), RKO with siRNA or mEF-G1 variants; format: cell-based, human; settings: 7 days
Description: as §1, §2, §3

[3] = test system: 512 human cancer cell lines; assay: Compound correlation analysis across the cell line panel; format: cell-based; settings: Pearson correlation across 512 cell lines
Description: All cell lines were maintained in humidified incubators at 37°C and 5% CO2 in DMEM or RPMI1640 supplemented with 10% FBS. Cells were seeded into 1536-well plates at a density of 250 cells per well, allowed to adhere for 12–24 hours, then treated for 3 days with pharmacological agents in 8-point dose response (semi-log from 8 µM to 2.5 nM), and cell viability was assessed using CellTiter Glo (Promega). […] Compound correlation analysis was performed by calculating a Pearson correlation for each compound pair (using either IC50 or Amax values) across the 512 cell lines. We required data values for a minimum of 50 cell lines in common to avoid spuriously high correlations.

angiogenesis = settings: p27-dependent mechanism; ref [6], [7], [8], [9]; cited from earlier work
Description: (§4) Natural products constitute a major resource for the identification of bioactive molecules. Indeed, most antibacterials in current use are natural products or semisynthetic derivatives thereof. The argyrins are natural peptides produced by myxobacteria and actinomycetes that have an intriguing antibacterial spectrum of activity, [2], [3]. This includes the intrinsically drug resistant organism Pseudomonas aeruginosa, but not other Gram negatives tested, such as Escherichia coli or Salmonella typhimurium, unless the cells are compromised in their outer membrane permeability barrier, p ...

apoptosis = settings: ref [6], [7], [8], [9]; cited from earlier work
Description: as §4

proteasome = settings: ref [6], [7], [8], [9]; cited from earlier work
Description: as §4

CCCCNC(=O)n1c(NC(=O)OC)nc2ccccc21 [benomyl, reference compound]
Effect on mitochondria (in words) [1]: had no effect on mitochondria

CC(=O)O[C@H]1C[C@@]2(C)[C@@H](C[C@@H](O)[C@H]3[C@@]4(C)CC[C@@H](O)[C@@H](C)[C@@H]4CC[C@@]32C)/C1=C(\CCC=C(C)C)C(=O)O [fusidic acid]
Binding to EF-G (in words) [2]: binds EF-G in complex with the ribosome

CC(C)C[C@@H](C=O)NC(=O)[C@H](CC(C)C)NC(=O)[C@H](CC(C)C)NC(=O)OCc1ccccc1 [MG132, reference compound] (Cbz-Leu-Leu-Leu-aldehyde)
Sensitivity change on knock down of mEF-G1 (in words) (HCT116; HCT116, GFM1 siRNA): without altering sensitivity | Sensitivity change on expression of mEF-G1 L693Q (in words) (HCT116; HCT116, mEF-G1 L693Q): without altering sensitivity | Sensitivity change on knock down of mEF-G1 (in words) (RKO; GFM1 siRNA): without altering sensitivity | Sensitivity change on expression of mEF-G1 L693Q (in words) (RKO; mEF-G1 L693Q): without altering sensitivity

argyrin A
Correlation of IC50 and maximal activity (Amax) profile with argyrin B (in words) [3]: strong correlation | Angiogenesis (in words) (angiogenesis): blocks angiogenesis | Apoptosis (in words) (apoptosis): induces apoptosis | Proteasome inhibition (in words) (proteasome): inhibits the proteasome
